Test results reported in US7879563B2, “Method of screening for a carnitine transporter agonist or antagonist and its uses” (Sanofi-Aventis Deutschland GmbH, priority 2004, dated 2011).
Blank lines part the entries; values can stand above or below the compound they belong to.

How the values were obtained:
Type in all cases: cell-based
[1] = target: T1, carnitine transporter comprising the amino acid sequence SEQ ID NO: 1 (Homo sapiens, UniProt Q695T7); experiment: Tracer flux transport measurement in Xenopus laevis oocytes injected with cRNA comprising SEQ ID NO: 4; conditions: for kinetics of transport compared with the substrate L-carnitine (FIG. 2): SEQ ID NO: 1, other substrates
T1 construct: expressed in transfected cells; host or cells: Xenopus laevis oocytes injected with cRNA
T1 sequence (Q695T7 1-634): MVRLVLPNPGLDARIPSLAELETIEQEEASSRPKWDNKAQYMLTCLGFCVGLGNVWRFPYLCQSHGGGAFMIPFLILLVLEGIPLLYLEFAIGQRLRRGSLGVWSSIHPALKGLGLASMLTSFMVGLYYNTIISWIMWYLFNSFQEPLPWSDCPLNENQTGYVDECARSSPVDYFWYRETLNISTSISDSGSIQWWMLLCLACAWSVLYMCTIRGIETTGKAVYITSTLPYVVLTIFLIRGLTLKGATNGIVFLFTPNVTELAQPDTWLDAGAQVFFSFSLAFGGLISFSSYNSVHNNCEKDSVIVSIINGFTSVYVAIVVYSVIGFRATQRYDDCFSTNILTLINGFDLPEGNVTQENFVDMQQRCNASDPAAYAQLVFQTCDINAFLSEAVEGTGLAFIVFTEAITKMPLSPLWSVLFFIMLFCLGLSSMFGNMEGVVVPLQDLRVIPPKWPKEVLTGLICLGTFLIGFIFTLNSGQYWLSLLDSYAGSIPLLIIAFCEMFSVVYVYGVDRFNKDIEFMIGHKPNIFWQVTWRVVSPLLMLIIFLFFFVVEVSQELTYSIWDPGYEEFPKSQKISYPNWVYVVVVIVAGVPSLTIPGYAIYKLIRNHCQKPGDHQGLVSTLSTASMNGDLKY
Protocol: The transport measurements of radioactively labeled compounds were executed using Xenopus laevis oocytes in the so-called “tracer flux method”, wherein the transport rate of substrates across the oocyte membrane into the cytosol is determined.
A Xenopus laevis oocyte was injected with a cRNA molecule comprising SEQ ID NO: 4.
Injected oocytes were kept in the culture medium ORi comprising gentamycin (50 mg/L) at 18° C. until the measurement of substrate uptake. Injured, acutely altered or later heavily damaged cells were discarded.
After 72 hours the oocyte was used for screening for a carnitine transporter agonist or antagonist.
Polysterene wells treated with oocyte homogenate were filled with 200 μl substrate solution. The oocytes were first washed two times with ORi solution, before use in the determination. 8 to 10 oocytes were used in a reaction mixture, in order to enable statistical evaluations. After the addition of the oocytes into the substrate solution the reaction mixture was softly mixed and incubated. The incubation was carried through at 22° C. for 1 hour. In order to stop the reaction, 1 ml of ice cold ORi was added.
The oocytes were washed four times in 15 ml ice cold ORi. Subsequently the oocytes were individually transferred into a 6 ml counter vial. The oocyte plasma membrane was disrupted by adding 100 μl […] solution. The vials were slightly agitated to disrupt the plasma membrane. The plasma membrane was completely disrupted by agitation for 30 to 45 minutes. The lysates were mixed with 2 ml of a scintillation cocktail. The radioactivity of the lysates was determined in a liquid scintillation counter comprising a correction for the luminescence and an external standard. Each vial was counted for 5 minutes.
In order to determine the substrate concentration after the dropping in of the oocytes, 2×10 μl solution were removed from the reaction mixture, 100 μl 5% SDS solution was added and evaluations with the counter were carried out. The obtained values were considered in the calculation of the transport rates.
For the determination of concentration-dependent substrate uptake serial dilutions of the investigated substrate were prepared and the radioactivity was distributed, such that in each reaction mixture between 10000 and 20000 cpm were counted in the supernatant. For the KM determination the substrate uptake was measured for 1 hour. In addition, the measurement was carried through using H2O-injected oocytes, in order to determine the background, i.e. the unspecific substrate uptake, for example mediated by diffusion or by endogenous transport proteins. The transport rates were calculated and graphically plotted against the substrate concentration and adapted mathematically according to the Michaelis-Menten equation.

[2] = target: T2, carnitine transporter comprising the amino acid sequence SEQ ID NO: 2 (Mus musculus, UniProt Q9D687); experiment: Transport activity of the mouse kidney and intestinal carnitine transporter
T2 sequence (Q9D687 1-634): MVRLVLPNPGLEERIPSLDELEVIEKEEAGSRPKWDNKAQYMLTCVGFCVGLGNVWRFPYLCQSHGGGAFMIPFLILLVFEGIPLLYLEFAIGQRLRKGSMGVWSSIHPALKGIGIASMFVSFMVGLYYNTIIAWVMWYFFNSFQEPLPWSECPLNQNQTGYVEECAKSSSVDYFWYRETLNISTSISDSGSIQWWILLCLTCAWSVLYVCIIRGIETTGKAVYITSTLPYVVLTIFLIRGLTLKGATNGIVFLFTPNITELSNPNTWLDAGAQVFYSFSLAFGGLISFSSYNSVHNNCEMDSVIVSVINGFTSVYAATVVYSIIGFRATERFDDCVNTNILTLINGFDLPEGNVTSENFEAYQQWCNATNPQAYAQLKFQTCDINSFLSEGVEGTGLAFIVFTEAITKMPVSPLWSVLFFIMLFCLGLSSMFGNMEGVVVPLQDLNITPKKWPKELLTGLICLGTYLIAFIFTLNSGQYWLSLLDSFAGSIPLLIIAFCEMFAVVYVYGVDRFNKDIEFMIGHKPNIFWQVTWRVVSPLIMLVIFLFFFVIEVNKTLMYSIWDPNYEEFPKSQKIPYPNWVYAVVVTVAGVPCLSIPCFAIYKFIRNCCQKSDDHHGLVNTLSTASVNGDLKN

[3] = target: T3, carnitine transporter comprising the amino acid sequence SEQ ID NO: 3 (Rattus norvegicus, UniProt Q2A865, F276Y/R32K/S186P); experiment: Transport activity of the rat kidney and intestinal carnitine transporter
T3 sequence (Q2A865 1-634 R32K/S186P/F276Y): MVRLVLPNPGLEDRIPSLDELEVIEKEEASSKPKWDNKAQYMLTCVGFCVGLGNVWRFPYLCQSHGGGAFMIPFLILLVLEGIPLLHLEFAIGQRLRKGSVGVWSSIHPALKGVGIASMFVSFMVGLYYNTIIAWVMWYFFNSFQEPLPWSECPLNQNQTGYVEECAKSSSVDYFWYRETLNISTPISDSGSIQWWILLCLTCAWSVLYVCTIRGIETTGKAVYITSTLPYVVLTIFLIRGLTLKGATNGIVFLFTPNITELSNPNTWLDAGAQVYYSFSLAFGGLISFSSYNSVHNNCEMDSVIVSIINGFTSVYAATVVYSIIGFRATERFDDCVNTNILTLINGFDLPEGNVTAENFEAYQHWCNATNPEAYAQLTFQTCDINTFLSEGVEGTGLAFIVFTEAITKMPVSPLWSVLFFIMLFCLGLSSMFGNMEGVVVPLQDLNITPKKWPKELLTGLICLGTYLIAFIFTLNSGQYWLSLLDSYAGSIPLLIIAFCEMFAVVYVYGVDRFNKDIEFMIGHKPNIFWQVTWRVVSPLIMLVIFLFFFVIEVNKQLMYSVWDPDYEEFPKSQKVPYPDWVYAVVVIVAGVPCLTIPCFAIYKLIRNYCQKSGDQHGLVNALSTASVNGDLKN

SMILES: C[N+](C)(C)C[C@H](O)CC(=O)[O-] [L-carnitine]
kinetics of transport compared with FIG. 2 (SEQ ID NO: 1) [2]: comparable kinetics
kinetics of transport compared with FIG. 2 (SEQ ID NO: 1) [3]: comparable kinetics

SMILES: C[n+]1ccc(-c2ccccc2)cc1 [methylphenylpyridinium]
kinetics of transport compared with the substrate L-carnitine (FIG. 2) [1]: comparable kinetics

SMILES: CN(CC(=O)O)C(=N)N [creatine]
transport of the substrate ([1]; SEQ ID NO: 1): transport
kinetics of transport compared with the substrate L-carnitine (FIG. 2) [1]: comparable kinetics
transport of the substrate [2]: transport
transport of the substrate [3]: transport

Other lines, results leading:

kinetics of transport compared with the substrate L-carnitine (FIG. 2) [1]: comparable kinetics
SMILES: NCCc1c[nH]c2ccc(O)cc12 [serotonin]

kinetics of transport compared with the substrate L-carnitine (FIG. 2) [1]: comparable kinetics
SMILES: NC[C@H](O)c1ccc(O)c(O)c1 [noradrenaline]
